According to PubChem BioAssay (NCI):
“And” between values parts separate entries of the source, which are not always exact repeats. Equal entries are not always repeated.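 Test compounds were applied to cells in 96-well plates for 48 hours at 5 doses. Here, GI50 denotes the concentration required for 50% inhibition of growth. TGI: total growth inhibition.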

Tests used:
Test in all cases: DTP human tumour cell line panel, 48 h
[1] = system: SK-OV-3 ovarian
[2] = system: HCT-15 colon
[3] = system: SNB-75 CNS
[4] = system: BT-549 breast
[5] = system: MDA-MB-435
[6] = system: SK-MEL-28 melanoma
[7] = system: SK-MEL-5 melanoma
[8] = system: UACC-257 melanoma
[9] = system: A549 NSCLC
[10] = system: SF-295 CNS

| Compound | GI50 [1] | TGI [1] | GI50 [2] | GI50 [3] | TGI [3] | GI50 [4] | TGI [4] | GI50 [5] | TGI [5] | GI50 [6] | TGI [6] | GI50 [7] | TGI [7] | GI50 [8] | TGI [8] | GI50 [9] [µM] | TGI [9] | GI50 [10] | TGI [10] | TGI [2] |
| --- | --- | --- | --- | --- | --- | --- | --- | --- | --- | --- | --- | --- | --- | --- | --- | --- | --- | --- | --- | --- |
| COc1cc2c(cc1O)c(=O)n(CCN(C)C)c1c3cc4c(cc3ncc21)OCO4 | < 0.0106 µM | 0.0876 µM | 0.0284 µM | < 0.0152 µM | 0.315 µM | 0.025 µM | 0.915 µM | 0.0195 µM | 0.258 µM | 0.053 µM | 1.01 µM | 0.0121 µM | 0.0312 µM | 0.0451 µM | 0.285 µM | 0.0356 | 0.594 µM | 0.0517 µM | 4.02 µM |  |
| CC(C)=Cc1cccc2[nH]c(O)c(N=Nc3ccc(S(N)(=O)=O)cc3)c12 | 14.5 µM | > 25 µM | 4.32 µM | > 8.54 µM | > 25 µM | > 22.8 µM | > 25 µM | > 21.4 µM | > 25 µM | > 25 µM | > 25 µM |  | > 25 µM | > 25 µM | > 25 µM | 4.1 | > 25 µM | 3.4 µM | > 25 µM | > 25 µM |
| COc1ccc(-c2cc(-c3ccc(OC)cc3)nc(NCCCNc3ccnc4cc(Cl)ccc34)n2)cc1 | 1.71 µM | 3.14 µM | 1.68 µM | 11.8 µM | 24.5 µM | 13.1 µM | 27.8 µM | 1.73 µM | 3.18 µM | 1.73 µM | 3.21 µM | 1.54 µM | 2.89 µM | 1.96 µM | 3.83 µM | 1.81 | 3.66 µM | 13.9 µM | 32 µM | 3.45 µM |
| CC[C@H]1CCC/C=C/[C@@H]2C[C@H](O)C[C@H]2[C@H](O)/C=C/C(=O)O1 | 0.0476 µM |  | 0.0446 µM | < 0.0119 µM | > 100 µM | 0.0549 µM | > 100 µM | 0.0434 µM | > 100 µM | 0.0219 µM | 0.134 µM | 0.0166 µM | 0.0328 µM | 0.0802 µM | > 100 µM | 0.0434 | > 100 µM | 0.0545 µM | > 100 µM |  |
| CCN1C(=O)N(CC)C2C1NN=c1s/c(=C\c3ccc(C(F)(F)F)cc3)c(=O)n12 (centres undefined) | 0.492 µM | > 100 µM | 0.318 µM | 0.18 µM | 2.74 µM | 0.783 µM | > 20.8 µM | 0.169 µM | 0.437 µM | 2.4 µM | 38.7 µM | 0.488 µM | 2.63 µM | 7.49 µM | 35.4 µM | 0.395 | > 43.1 µM | 0.33 µM | 31.2 µM | > 35.6 µM |
| FC(F)(F)c1nc(SCc2ccc(Cl)cc2)n[nH]1 |  | > 100 µM |  |  | > 100 µM |  | > 100 µM |  | > 100 µM |  | > 100 µM |  | > 100 µM |  | > 100 µM |  | > 100 µM |  | > 100 µM | > 100 µM |
| CCc1[nH]nc(C(N)=O)c1N=NN(C)C |  | > 100 µM |  |  | > 100 µM |  | > 100 µM |  | > 100 µM |  | > 100 µM |  | > 100 µM |  | > 100 µM |  | > 100 µM |  | > 100 µM | > 100 µM |
| CC[C@]12C=CCN3CC[C@@]4(c5ccc(OC)cc5N(C)[C@H]4[C@@](O)(C(=O)OC)[C@@H]1OC(=O)CCC(=O)O[C@H]1CC[C@H]4[C@@H]5CC[C@H]6CC(=O)CC[C@]6(C)[C@H]5CC[C@]14C)[C@@H]32 | 2.89 µM | 9.55 µM | 2.44 µM | 3.3 µM | > 100 µM | 2.21 µM | > 100 µM | 2.89 µM | > 100 µM | 3.27 µM | > 100 µM | 1.65 µM | 4.03 µM | 3.91 µM | 16.6 µM | 4.19 | 35.3 µM | 2.02 µM | > 100 µM | > 100 µM |
| CCCCC(OC(=O)c1ccc(N)cc1)C(=O)Nc1nc(CC(=O)OCC)cs1 (centres undefined) | 29.1 µM | > 100 µM | 40.2 µM | 35.2 µM | > 100 µM | 34.5 µM | > 100 µM | 35 µM | > 100 µM | 42.2 µM | > 100 µM | 17.8 µM | 34.5 µM | 42.8 µM | > 100 µM | 37.5 | > 100 µM | 32.3 µM | > 100 µM | > 100 µM |
| Fc1ccc(-c2ncn(CCCN3CCOCC3)c2-c2ccncc2)cc1 | > 25 µM | > 25 µM | > 25 µM | > 25 µM | > 25 µM | > 25 µM | > 25 µM | > 25 µM | > 25 µM | > 25 µM | > 25 µM | > 25 µM | > 25 µM | > 25 µM | > 25 µM | > 25 | > 25 µM | > 25 µM | > 25 µM | > 25 µM |
| C#Cc1cccc(NC(=O)c2cccc(NC(=O)CCl)c2)c1 | 56.4 µM | > 82.5 µM | 5.2 µM | 12.3 µM | 75.5 µM | 17.8 µM | 70.4 µM | 32.3 µM | > 82.5 µM | 43.1 µM | > 82.5 µM | 15.1 µM | 28 µM | 54.7 µM | > 82.5 µM | 21.6 | > 82.5 µM | 51.1 µM | > 82.5 µM | 19.1 µM |
| Cc1ccc2[nH]c(O)c(N=Nc3ccccc3[N+](=O)[O-])c2c1 |  | 14.2 µM |  |  | > 50 µM |  | > 94.3 µM |  | > 100 µM |  | > 100 µM |  | > 100 µM |  | > 100 µM |  | > 100 µM |  | > 58.8 µM | > 100 µM |
| O=C(O)CN1C(=O)CN=C(c2ccccn2)c2cc(Cl)ccc21 |  | > 100 µM |  |  | > 100 µM |  | > 100 µM |  | > 100 µM |  | > 100 µM |  | > 100 µM |  | > 100 µM |  | > 100 µM |  | > 100 µM | > 100 µM |
| O=C(Nc1ccccc1Cl)c1ccc(NC2=C(Cl)C(=O)N(C3CCCCC3)C2=O)cc1 | 27.1 µM | 65.2 µM | 6.79 µM | 8.64 µM | 34.4 µM | 20.7 µM | 47.1 µM | 9.61 µM | 44.1 µM | 17.6 µM | 49.6 µM | 11.5 µM | 40.3 µM | 5.29 µM | 15 µM | 13.3 | 32.9 µM | 26.4 µM | 68.1 µM | 25.2 µM |
| O=C(Nc1n[nH]c2nc(-c3ccc(O)cc3)c(Br)cc12)C1CC1 | 2.67 µM | 11.8 µM | 3.77 µM | 6.21 µM | 12.5 µM | 5.78 µM | 19.8 µM | 2.71 µM | 7.29 µM | 3.85 µM | 9.88 µM | 0.607 µM | 4.07 µM | 6.36 µM | 17 µM | 4.98 | > 21.7 µM | 2.38 µM | 14.8 µM | > 23.2 µM |
| O=C(Nc1cn[nH]c1-c1nc2ccc(CN3CCOCC3)cc2[nH]1)NC1CC1 | 0.375 µM and 0.299 µM | 3.52 µM and 8.08 µM | 4.52 µM and > 10 µM | 0.0327 µM and 0.214 µM | 0.367 µM and 1.62 µM | 0.385 µM and 0.963 µM | 2.13 µM and > 10 µM | 1.43 µM and 6.77 µM | 5 µM and > 10 µM | 1.79 µM and > 10 µM | 5.7 µM and > 10 µM | 1.34 µM and 8.52 µM | 3.68 µM and > 10 µM | 1.72 µM and > 10 µM | 7.76 µM and > 10 µM |  | 9.76 µM and > 10 µM | 0.195 µM and 1.09 µM | 1.5 µM and 4.67 µM | 25.6 µM and > 10 µM |
| O=C1/C(=C/c2ccc(F)cc2)CN(C(=O)C(Cl)Cl)C/C1=C\c1ccc(F)cc1 | 0.884 µM | 2.2 µM | 0.145 µM | 1.45 µM | 2.93 µM | 0.253 µM | 0.81 µM | 0.212 µM | 0.486 µM | 0.257 µM | 0.666 µM | 0.366 µM | 1.01 µM | 0.45 µM | 1.62 µM | 0.324 | 1.38 µM | 0.23 µM | 0.67 µM | 0.682 µM |
| CC1OC(CC(=O)O)Cc2c1c(O)c1c(O)cc(-c3cc(=O)c4c(=O)c5c(c(=O)c=4c3=O)CC(CC(=O)O)OC5C)c(O)c1c2O (centres undefined) | 48.8 µM | > 100 µM | 61.6 µM | 19.4 µM | > 100 µM and 57.1 µM | 52.7 µM |  | 16.8 µM | 36.7 µM | 79.5 µM | 29.5 µM | 60.9 µM | 31.9 µM | 21.8 µM | 26.9 µM and 66.9 µM | 53.7 | > 100 µM | 77.3 µM | > 100 µM | 16.7 µM |
| CCOC(=O)Nc1ccc2c(c1)C(=O)N(CC)c1ccccc1O2 | 0.157 µM | > 100 µM | 0.0746 µM | 0.188 µM | > 100 µM | 0.184 µM | 16.9 µM | 0.0311 µM | 0.11 µM | 12.5 µM | > 100 µM | 0.106 µM | 2.33 µM | 35.6 µM | > 100 µM | 0.145 | > 100 µM | 0.0846 µM | 0.79 µM | > 100 µM |
| O=c1oc2ccc(Cl)cc2c(=O)n1-c1ccc(F)cc1F | 1.12 µM | 5.43 µM | 2.32 µM | 1.32 µM | 4.2 µM | 1.09 µM | 5.89 µM | 1.64 µM | 7.73 µM | 1.52 µM | 10.5 µM | 1.11 µM | 2.46 µM | 0.45 µM | 4.08 µM | 2.08 | > 100 µM | 1.76 µM | 3.55 µM | 13.5 µM |
